Results reported in ChEMBL document CHEMBL1201862, “PubChem BioAssay data set” (2004).
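1) Cells in 96-well plates. 2) Compound, 48 h, 5 concentrations. 3) Linear interpolation between surrounding doses. 4) Unreached endpoint = highest concentration. GI50 is the concentration that inhibits growth by half.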 Calls of active or inactive are those of the source. Rule as the data show it: active = GI50 up to about 1.1 µM and inactive = higher.

Legend:
Experiment in all cases: NCI tumour cell line growth inhibition, 48 h
[1] = system: 786-0
[2] = system: SW-620
[3] = system: U-251
[4] = system: A498
[5] = system: MDA-MB-435
[6] = system: UACC-257
[7] = system: K562
[8] = system: MDA-N
[9] = system: SK-MEL-2
[10] = system: SR
[11] = system: NCI/ADR-RES
[12] = system: SNB-75
[13] = system: UO-31
[14] = system: COLO 205
[15] = system: OVCAR-3
[16] = system: TK-10
[17] = system: HOP-62
[18] = system: ACHN
[19] = system: MCF7
[20] = system: RPMI-8226

Measured: GI50

O=c1[nH]c(=O)n(COCCOCc2ccccc2)cc1Nc1ccccc1
inactive: [1] 60.1 µM | [2] > 100 µM | [3] > 100 µM | [4] > 100 µM | [5] > 100 µM | [6] > 100 µM | [7] > 100 µM | [8] > 100 µM | [9] > 100 µM | [10] > 100 µM | [11] > 100 µM | [12] > 100 µM | [13] > 100 µM | [14] > 100 µM | [15] > 100 µM | [16] > 100 µM | [17] > 100 µM | [18] > 100 µM | [19] > 100 µM

COc1cc(S(=O)(=O)Nc2ccc(-c3csc(N4C(=O)C(Cl)C4c4cccs4)n3)cc2)ccc1Cl (centres undefined)
inactive: [1] 25.8 µM | [2] 43.4 µM | [4] > 100 µM | [5] 72.9 µM | [6] 28.1 µM | [7] 31.8 µM | [8] 65 µM | [9] > 100 µM | [10] 5.32 µM | [11] > 100 µM | [12] > 100 µM | [13] 84.3 µM | [20] 26.9 µM | [14] 31.7 µM | [15] > 100 µM | [17] > 100 µM | [18] > 100 µM | [19] 29.5 µM

Cn1c(S)nc(C(N)=O)c1N
inactive: [1] > 100 µM | [2] > 100 µM | [3] > 100 µM | [4] > 100 µM | [5] > 100 µM | [7] > 100 µM | [8] > 100 µM | [9] > 100 µM | [10] > 100 µM | [11] > 100 µM | [12] > 100 µM | [13] > 100 µM | [20] > 100 µM | [14] > 100 µM | [15] > 100 µM | [16] > 100 µM | [17] > 100 µM | [18] > 100 µM | [19] > 100 µM

COc1cc(C2c3cccc4cccc(c34)C3CCC(=O)N32)cc(OC)c1O (centres undefined)
inactive: [1] > 50 µM | [2] > 50 µM | [3] > 50 µM | [4] > 50 µM | [5] > 50 µM | [6] > 50 µM | [7] > 50 µM | [8] > 50 µM | [9] > 50 µM | [10] > 50 µM | [11] > 50 µM | [12] > 50 µM | [13] > 50 µM | [20] > 50 µM | [14] > 50 µM | [15] > 50 µM | [17] > 50 µM | [18] > 50 µM | [19] > 50 µM

COC(=O)c1c(C#C[Si](C)(C)C)c(C#C[Si](C)(C)C)c(C#C[Si](C)(C)C)c(C#C[Si](C)(C)C)c1C(=O)OC
inactive: [1] > 100 µM | [2] > 100 µM | [3] > 100 µM | [4] > 100 µM | [5] > 100 µM | [6] > 100 µM | [7] > 100 µM | [8] > 100 µM | [9] > 100 µM | [10] > 100 µM | [11] > 100 µM | [12] > 100 µM | [13] > 100 µM | [20] > 100 µM | [14] > 100 µM | [15] > 100 µM | [16] > 100 µM | [18] > 100 µM | [19] > 100 µM

CC1(C)OCC([C@H]2O[C@@H](CC(=S)NCCCCCCCCCCCCNC(=S)C[C@H]3O[C@@H](C4COC(C)(C)O4)[C@H]4OC(C)(C)O[C@H]43)[C@H]3OC(C)(C)O[C@H]32)O1 (some centres undefined)
inactive: [1] 83.8 µM | [2] > 100 µM | [3] 35 µM | [4] 11.9 µM | [5] 70.8 µM | [6] 42.5 µM | [7] 39.4 µM | [8] 58.5 µM | [9] 58.5 µM | [10] 34.8 µM | [11] 25.9 µM | [12] > 100 µM | [13] 19 µM | [20] 15.7 µM | [15] 74.5 µM | [16] > 100 µM | [17] > 100 µM | [18] 49.3 µM | [19] 24.4 µM

COc1nc(C#CC2(O)CCCCC2)nc(OC)n1
inactive: [1] 22.9 µM | [2] 8.91 µM | [3] 12.4 µM | [4] 17.3 µM | [5] 5.82 µM | [6] 14.6 µM | [7] 6.49 µM | [8] 10.9 µM | [9] 14 µM | [10] 3.47 µM | [11] 23.6 µM | [12] 19.4 µM | [13] 3.82 µM | [20] 2.88 µM | [14] 14.7 µM | [15] 8.15 µM | [17] 34.2 µM | [18] 8.49 µM | [19] 4.28 µM

Nc1ccc(/N=N/c2ccccc2)cc1
inactive: [1] 64.9 µM | [2] 51.8 µM | [3] 46.5 µM | [4] 46.8 µM | [5] 56.1 µM | [6] > 100 µM | [7] 35.8 µM | [8] 60.3 µM | [9] 22.6 µM | [10] 19.3 µM | [11] 34.8 µM | [12] 10.3 µM | [13] 13.2 µM | [14] 46.1 µM | [15] 18.8 µM | [16] 47.9 µM | [17] 42 µM | [18] 30.3 µM | [19] 30.5 µM

O=C1CCCCC1C(O)(C(F)(F)F)C(F)(F)Cl (centres undefined)
inactive: [1] > 10 µM | [2] > 10 µM | [3] > 10 µM | [4] > 10 µM | [5] > 10 µM | [6] > 10 µM | [7] > 10 µM | [8] > 10 µM | [9] > 10 µM | [10] > 10 µM | [11] > 10 µM | [12] > 10 µM | [20] > 10 µM | [14] > 10 µM | [15] > 10 µM | [16] > 10 µM | [17] > 10 µM | [18] > 10 µM | [19] > 10 µM

CC1CC(=O)N(N(C)C)C2(C#N)C(=O)N=C(N)C12C#N (centres undefined)
inactive: [1] > 100 µM | [2] 35.4 µM | [3] > 100 µM | [4] > 100 µM | [5] > 100 µM | [6] > 100 µM | [7] 27.2 µM | [8] > 100 µM | [9] > 100 µM | [10] > 100 µM | [11] > 100 µM | [12] > 100 µM | [13] > 100 µM | [20] 35.4 µM | [14] 38.7 µM | [16] > 100 µM | [17] > 100 µM | [18] > 100 µM | [19] > 100 µM
